From ChEMBL document CHEMBL2396574, “Design, synthesis and evaluation of retinoids with novel bulky hydrophobic partial structures” (Bioorg Med Chem, 2013) come the findings set out here.

Active and inactive are the calls of the source. The rule behind the calls is not given here.

Experiment [1] has as its target T1, Retinoic acid receptor RXR-gamma (Homo sapiens) (UniProt P48443).
T1 sequence (whole entry): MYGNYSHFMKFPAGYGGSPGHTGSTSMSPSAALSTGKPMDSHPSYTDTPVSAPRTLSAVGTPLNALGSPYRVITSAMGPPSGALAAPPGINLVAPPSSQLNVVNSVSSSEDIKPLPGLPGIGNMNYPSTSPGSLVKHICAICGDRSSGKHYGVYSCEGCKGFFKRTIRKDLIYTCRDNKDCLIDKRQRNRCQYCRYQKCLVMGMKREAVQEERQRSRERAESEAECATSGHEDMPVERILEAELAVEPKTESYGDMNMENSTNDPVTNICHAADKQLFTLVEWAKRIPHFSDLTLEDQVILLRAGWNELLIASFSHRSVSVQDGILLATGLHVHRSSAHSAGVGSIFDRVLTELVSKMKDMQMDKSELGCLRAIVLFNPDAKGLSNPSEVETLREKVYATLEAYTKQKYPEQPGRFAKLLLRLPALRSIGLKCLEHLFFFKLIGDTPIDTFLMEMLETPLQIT
The experiment can be described thus: Transactivation of full-length RXRgamma (unknown origin) expressed in African green monkey COS1 cells at 1000 nM by luciferase reporter gene assay. The class given is cell-based. The note with it: COS-1. On the technique in general: In a reporter assay the amount or activity of a reporter protein is the signal.

Experiment [2] addresses T2, Retinoic acid receptor gamma (Homo sapiens) (UniProt P13631).
T2 sequence (whole entry): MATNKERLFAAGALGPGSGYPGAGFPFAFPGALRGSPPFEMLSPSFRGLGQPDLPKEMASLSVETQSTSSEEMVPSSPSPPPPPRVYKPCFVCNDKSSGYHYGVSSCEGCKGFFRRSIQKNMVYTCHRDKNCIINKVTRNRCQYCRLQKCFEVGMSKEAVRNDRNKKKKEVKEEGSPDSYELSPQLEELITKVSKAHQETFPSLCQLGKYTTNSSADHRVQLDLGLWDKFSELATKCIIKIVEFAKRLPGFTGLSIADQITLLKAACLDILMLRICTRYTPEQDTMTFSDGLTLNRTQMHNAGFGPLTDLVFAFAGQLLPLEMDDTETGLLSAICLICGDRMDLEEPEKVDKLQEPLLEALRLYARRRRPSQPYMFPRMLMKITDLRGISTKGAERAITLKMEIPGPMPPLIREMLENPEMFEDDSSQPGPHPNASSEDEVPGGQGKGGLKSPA
The experiment can be described thus: Transactivation of Gal4-fused RARgamma (unknown origin) expressed in African green monkey COS1 cells at 100 nM by luciferase reporter gene assay relative to DMSO-treated control. Type of experiment: cell-based. As to conditions: COS-1.

Experiment [3] relates to HL-60. The experiment can be described thus: Induction of human HL60 cell differentiation into myeloid cells at 100 nM after 4 days by NBT reduction assay relative to control. Type of experiment: functional.
Experiment [4] has as its target T3, Retinoic acid receptor RXR-beta (Homo sapiens) (UniProt P28702).
T3 sequence (whole entry): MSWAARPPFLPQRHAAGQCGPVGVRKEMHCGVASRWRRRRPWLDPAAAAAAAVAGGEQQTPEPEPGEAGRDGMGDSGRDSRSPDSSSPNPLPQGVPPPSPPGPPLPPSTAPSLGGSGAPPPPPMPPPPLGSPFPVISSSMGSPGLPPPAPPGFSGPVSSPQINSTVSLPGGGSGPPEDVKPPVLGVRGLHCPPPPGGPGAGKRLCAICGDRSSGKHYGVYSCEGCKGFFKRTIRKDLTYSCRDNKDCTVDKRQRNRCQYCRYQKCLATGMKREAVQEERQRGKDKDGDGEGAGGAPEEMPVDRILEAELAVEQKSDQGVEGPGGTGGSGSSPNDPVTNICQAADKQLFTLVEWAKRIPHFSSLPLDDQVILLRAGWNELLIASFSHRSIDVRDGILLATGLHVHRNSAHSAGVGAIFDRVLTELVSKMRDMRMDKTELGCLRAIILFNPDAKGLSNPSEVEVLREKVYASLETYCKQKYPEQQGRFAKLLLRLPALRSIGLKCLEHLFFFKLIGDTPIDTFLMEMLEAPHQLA
The experiment can be described thus: Transactivation of full-length RXRbeta (unknown origin) expressed in African green monkey COS1 cells at 1000 nM by luciferase reporter gene assay. The class given is cell-based. The note with it: COS-1.

Experiment [5] has as its target T4, Retinoic acid receptor beta (Homo sapiens) (UniProt P10826).
T4 sequence (whole entry): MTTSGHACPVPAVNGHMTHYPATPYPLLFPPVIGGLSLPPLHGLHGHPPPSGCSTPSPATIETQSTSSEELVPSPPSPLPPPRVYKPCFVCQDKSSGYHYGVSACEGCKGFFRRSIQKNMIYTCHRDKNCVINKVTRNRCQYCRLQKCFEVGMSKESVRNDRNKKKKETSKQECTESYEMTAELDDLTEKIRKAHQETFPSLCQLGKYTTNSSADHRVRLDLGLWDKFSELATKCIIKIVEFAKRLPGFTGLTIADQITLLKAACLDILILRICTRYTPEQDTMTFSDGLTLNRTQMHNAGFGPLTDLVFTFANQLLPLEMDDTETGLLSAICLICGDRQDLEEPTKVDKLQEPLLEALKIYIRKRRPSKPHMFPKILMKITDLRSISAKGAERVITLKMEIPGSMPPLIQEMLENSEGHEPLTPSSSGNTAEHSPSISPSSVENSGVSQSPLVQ
The experiment can be described thus: Transactivation of Gal4-fused RARbeta (unknown origin) expressed in African green monkey COS1 cells at 100 nM by luciferase reporter gene assay relative to DMSO-treated control. Type of experiment: cell-based. The note with it: COS-1.

Experiment [6] concerns HL-60. The experiment can be described thus: Induction of human HL60 cell differentiation into myeloid cells at 10 nM after 4 days by NBT reduction assay relative to control. The class given is functional.
Experiment [7] relates to HL-60. The experiment can be described thus: Induction of human HL60 cell differentiation into myeloid cells at 10^-6 M after 4 days by NBT reduction assay. Type of experiment: functional, cell-based.

Regarding `CC12CCCc3cc(C(=O)Nc4ccc(C(=O)O)cn4)cc(c31)CCC2`, the outcome in experiment [1] and in experiment [4] was inactive. Besides, the fold change (FC) in experiment [2] is 25; in experiment [5], 40. Also, the Activity is 61% in the experiment on HL-60 [3] and 41% in the experiment on HL-60 [6].
`O=C(O)c1ccc(C(=O)Nc2cc3cc(c2)CCCCCCCCCC3)cc1`: the outcome in experiment [1] and in experiment [4] was inactive. Besides, the results for the fold change (FC) in experiment [2] and in experiment [5] were 1 and 8, respectively. Further, the Activity in the experiment on HL-60 [3] is reported as 37%; in the experiment with HL-60 [6], 16%.
Regarding `O=C(O)c1ccc(C(=O)Nc2cc3c4c(c2)CCCC4CCC3)cc1`, the outcome in experiment [1] and in experiment [4] was inactive. In addition, the fold change (FC) in experiment [2] amounted to 1; in experiment [5] it was 5. The figures for the Activity in the experiment with HL-60 [3] and in the experiment with HL-60 [6] were 18% and 7%, respectively.
With `CC12CCCc3cc(NC(=O)c4ccc(C(=O)O)cn4)cc(c31)CCC2`, the result in experiment [1] and in experiment [4] was inactive. Further, the fold change (FC) in experiment [2] came to 2; in experiment [5] it was 26. For the same molecule, the figures for the Activity in the experiment on HL-60 [3] and in the experiment with HL-60 [6] were 16% and 5%, respectively.
Take `O=C(O)c1ccc(C(=O)Nc2cc3c4c(c2)CCCCC4CCCC3)cc1`: the result in experiment [1] and in experiment [4] was inactive. Moreover, the values for the fold change (FC) in experiment [2] and in experiment [5] were 1 and 13, respectively. The results for the Activity in the experiment on HL-60 [3] and in the experiment on HL-60 [6] were 53% and 13%, respectively.
Regarding `O=C(Nc1ccc(C(=O)O)c(Cl)c1)c1cc2c3c(c1)CCCCC3CCCC2`, the outcome in experiment [1] and in experiment [4] was inactive. Besides, the fold change (FC) in experiment [2] was 2; in experiment [5] it was 13. The Activity is given as 35% in the experiment on HL-60 [3] and 18% in the experiment on HL-60 [6].
Regarding `O=C(Nc1ccc(C(=O)O)c(O)c1)c1cc2c3c(c1)CCCCC3CCCC2`, the outcome in experiment [1] and in experiment [4] was inactive. Besides, the fold change (FC) was 2 in experiment [2] and 11 in experiment [5]. Moreover, the Activity stood at 41% in the experiment with HL-60 [3] and 29% in the experiment on HL-60 [6].
As for `CC12CCCc3cc(C(=O)Nc4ccc(C(=O)O)c(F)c4)cc(c31)CCC2`, the outcome in experiment [1] and in experiment [4] was inactive. The fold change (FC) in experiment [2] amounted to 2; in experiment [5], 13. The results for the Activity in the experiment with HL-60 [3] and with HL-60 [6] were 29% and 18%, respectively.
On to `O=C(O)c1ccc(C(=O)Nc2cc3c4c(c2)CCCC4CCC3)nc1`, for which the result in experiment [1] and in experiment [4] was inactive. The fold change (FC) in experiment [2] amounted to 7; in experiment [5], 16. Moreover, the values for the Activity in the experiment with HL-60 [3] and with HL-60 [6] were 5% and 2%, respectively.
On to `O=C(Nc1ccc(C(=O)O)c(Cl)c1)c1cc2c3c(c1)CCCC3CCC2`, for which the result in experiment [1] and in experiment [4] was inactive. In addition, the fold change (FC) in experiment [2] amounted to 1; in experiment [5], 6. Further, the Activity turned out to be 37% in the experiment on HL-60 [3] and 16% with HL-60 [6].
Take `O=C(Nc1ccc(C(=O)O)c(F)c1)c1cc2c3c(c1)CCCCC3CCCC2`: the result in experiment [1] and in experiment [4] was inactive. Further, the fold change (FC) turned out to be 5 in experiment [2] and 19 in experiment [5]. The Activity with HL-60 [3] was determined as 44%; with HL-60 [6], 28%. Moreover, the result with HL-60 [7] was Active.
`COc1cc(NC(=O)c2cc3c4c(c2)CCCC4(C)CCC3)ccc1C(=O)O`: the outcome in experiment [1] and in experiment [4] was inactive. The figures for the fold change (FC) in experiment [2] and in experiment [5] were 1 and 3, respectively. The Activity was determined as 17% with HL-60 [3] and 5% in the experiment on HL-60 [6].
Regarding `O=C(Nc1ccc(C(=O)O)c(O)c1)c1cc2c3c(c1)CCCC3CCC2`, the result in experiment [1] and in experiment [4] was inactive. In addition, the values for the fold change (FC) in experiment [2] and in experiment [5] were 2 and 6, respectively. Also, the Activity in the experiment on HL-60 [3] was 42%; in the experiment with HL-60 [6] it was 24%.
Consider `CC12CCCc3cc(C(=O)Nc4ccc(C(=O)O)c(O)c4)cc(c31)CCC2`, for which the result in experiment [1] and in experiment [4] was inactive. Further, the fold change (FC) in experiment [2] was 1; in experiment [5], 7. The Activity was 32% in the experiment with HL-60 [3] and 17% in the experiment with HL-60 [6].
For the molecule `O=C(O)c1ccc(NC(=O)c2cc3c4c(c2)CCCC4CCC3)nc1`, the result in experiment [1] and in experiment [4] was inactive. In addition, the fold change (FC) in experiment [2] stood at 20; in experiment [5], 40. In addition, the Activity with HL-60 [3] amounted to 59%; in the experiment with HL-60 [6], 54%.
Take `O=C(O)c1ccc(NC(=O)c2cc3c4c(c2)CCCC4CCC3)cc1`: the outcome in experiment [1] and in experiment [4] was inactive. In addition, the fold change (FC) in experiment [2] came out at 3; in experiment [5], 18. For the same molecule, the Activity in the experiment with HL-60 [3] is given as 38%; in the experiment on HL-60 [6], 27%.
In the case of `COc1cc(NC(=O)c2cc3c4c(c2)CCCC4CCC3)ccc1C(=O)O`, the outcome in experiment [1] and in experiment [4] was inactive. The fold change (FC) in experiment [2] turned out to be 1; in experiment [5] it was 2. The Activity amounted to 10% in the experiment on HL-60 [3] and 7% in the experiment on HL-60 [6].
For `CC12CCCc3cc(C(=O)Nc4ccc(C(=O)O)c(Cl)c4)cc(c31)CCC2`, the outcome in experiment [1] and in experiment [4] was inactive. Also, the fold change (FC) in experiment [2] turned out to be 1; in experiment [5], 8. Besides, the Activity in the experiment on HL-60 [3] is 21%; in the experiment on HL-60 [6], 19%.
With `O=C(O)c1ccc(NC(=O)c2cc3cc(c2)CCCCCCCCCC3)cc1`, the outcome in experiment [1] and in experiment [4] was inactive. The fold change (FC) in experiment [2] was 1; in experiment [5] it was 13. The Activity is recorded as 38% with HL-60 [3] and 30% in the experiment with HL-60 [6].
As to `O=C(Nc1ccc(C(=O)O)c(F)c1)c1cc2c3c(c1)CCCC3CCC2`, the result in experiment [1] and in experiment [4] was inactive. Further, the fold change (FC) in experiment [2] was 2; in experiment [5], 7. Further, the results for the Activity with HL-60 [3] and with HL-60 [6] were 60% and 49%, respectively.
